Key:
[1] = Tolerability in HSAX2655-tumor bearing mice (body weight, survival); assay type: in vivo; conditions: p.o., q24h, Compound A 30 mg/kg, Compound C 75 mg/kg, day 14 post 1st treatment; for Host Survival: survivors/group
Protocol: Compounds A and C were formulated fresh for each administration. The compounds were dissolved in 0.5% methylcellulose. For efficacy experiments, mice were randomized into groups of n=5 and treated for 14 days. Compound A was injected at 30 mg/kg and Compound C at 75, 150 and 250 mg/kg. Mice were treated daily (q24 h) p.o. at 10 ml/kg for both drugs. On the last day of experiment, mice from each treatment group were sacrificed 4 and 24 h post last treatment and tumors were snap-frozen.
Efficacy and tolerability were assessed by determining tumor volume and body weight, respectively. Tumor volume (TVol), determined from caliper measurements (using the formula I*w*h*π/6) were measured three times per week. Tumor response was quantified by the change in tumor volume (endpoint minus starting value in mm^3) as the T/C i.e.
[formula] The body-weight (BW) of the mice was measured three times per week allowing calculation at any particular time-point relative to the day of initiation of treatment (day 0) of both the percentage change in BW (Δ % BW).
Differences between the means of TVol and BW were assessed on the endpoint ΔTvol or % ΔBW using a 1-way ANOVA with Dunnett or Tukey's tests post-hoc. Linear correlations were explored by determining Pearson correlation coefficient, with P<0.05 considered as significant.

HSAX2655 tumor = assay: Well differentiated liposarcoma (WDLPS) patient-derived in vivo model HSAX2655, efficacy; design: species or system Harlan nude mice; conditions: p.o., q24h, Compound A 30 mg/kg, Compound C 75 mg/kg; for Tumor T/C: day 14 post 1st treatment; for Tumor ΔTvol: day 37 post transplantation (day 14 post 1st treatment)
Protocol: PDX tumors were induced by transplanting subcutaneously frozen pieces of tumors in the right flank of Harlan nude mice. After several weeks of growth, donor animals were sacrificed and tumors were taken out and cut in 3×3×3 mm^3 pieces. Each tumor piece was transplanted subcutaneously in the right flank of naive Harlan nude mice. Efficacy experiment could start 30 days post transplantation. Compounds A and C were formulated fresh for each administration. The compounds were dissolved in 0.5% methylcellulose. For efficacy experiments, mice were randomized into groups of n=5 and treated for 14 days. Compound A was injected at 30 mg/kg and Compound C at 75, 150 and 250 mg/kg. Mice were treated daily (q24 h) p.o. at 10 ml/kg for both drugs. On the last day of experiment, mice from each treatment group were sacrificed 4 and 24 h post last treatment and tumors were snap-frozen. Efficacy and tolerability were assessed by determining tumor volume and body weight, respectively. Tumor volume (TVol), determined from caliper measurements (using the formula I*w*h*π/6) were measured three times per week. Tumor response was quantified by the change in tumor volume (endpoint minus starting value in mm^3) as the T/C i.e. [formula] In the case of tumor regression, the tumor response was quantified by the percentage of regression of the starting TVol, ie Differences between the means of TVol and BW were assessed on the endpoint ΔTvol or % ΔBW using a 1-way ANOVA with Dunnett or Tukey's tests post-hoc. Linear correlations were explored by determining Pearson correlation coefficient, with P<0.05 considered as significant. A non-statistical analysis of the combination effects of therapy on the efficacy were calculated using a modification of the method described by Clark (1997) to obtain a Combination Index (CI). Thus, multiplication of the AUC-T/Cs for single agents A and B was compared to the AUC-T/C obtained for the actual combination A+B.

[2] = tested on: liposarcoma cell line 778; assay: Microscopy (nuclei count) proliferation assay, 72 hrs, 778 cells; assay type: cell-based; conditions: single agent
Protocol: (§1) Compounds B and C were dissolved in 100% DMSO (Sigma, Catalog number D2650) at concentrations of 10 mM and stored at −20° C. until use. Compounds were arrayed in 300 uL deep well 384-well plates (BrandTec, Catalog number 701355) at 8× the highest final concentration. Row and column dilutions were prepared separately using a Bravo liquid handler (Agilent Technologies). Dilutions were made at 1:2 giving a total of 10 dilutions for each compound. Once completed the row and column dilution plates were combined 1:1 giving a final stamping plate at 4× concentration.
(§2) The cell lines 449b, 778 and LP6 were cultured in RPMI1640 (ATCC, Catalog number 30-2110) supplemented with 10% FBS (HyClone, Catalog number SH30071.03) at 37° C. and 5% CO2. In all cases cells were thawed from frozen stocks, expanded through ≥1 passage using 1:6 dilutions. Cells were counted and assessed for viability using a ViCell counter (Beckman-Coulter). The identity of all the cell lines was confirmed by SNP profiling.
All cells were seeded at a concentration of […] cells/mL in 30 uL RPMI1640 media using a BioTek MicroFill (BioTek). Four 384-well plates were prepared per cell line (Greiner bio-one, catalog number 781091). The next day, compound was added using Bravo liquid handler. […] To other plates, compound was added and plates were incubated for 72 hrs. Following incubation period, 10 ul of the media was removed using the ELx405 Microplate Washer (BioTek/Thermo Scientific). […]
(§3) An automated image analysis pipeline was established using custom-made scripts in the open-source, statistical programming language R, and functions of the BioConductor package EBImage. The goal was to quantify the number of viable nuclei (cells) per well as an approximation for cell viability. […]

[3] = tested on: liposarcoma cell line 449b; assay: Microscopy (nuclei count) proliferation assay, 72 hrs, 449b cells; assay type: cell-based; conditions: single agent
Protocol: as §1
as §2, with “profiling. […]” for “profiling.”
as §3

[4] = tested on: liposarcoma cell line LP6; assay: Microscopy (nuclei count) proliferation assay, 72 hrs, LP6 cells; assay type: cell-based; conditions: single agent
Protocol: as §1
as §2, with “profiling. […]” for “profiling.”
as §3

IC50 [2] | Structure (SMILES) | Host ΔBW [1] | Host Survival [1] | Tumor T/C (HSAX2655 tumor) | Tumor ΔTvol (HSAX2655 tumor) | IC50 ([2]; 72 h) | IC50 [3] | IC50 [4]
 | COc1cc2c(cc1OC(C)C)[C@H](c1ccc(Cl)cc1)N(c1ccc(N(C)C[C@H]3CC[C@H](N4CCN(C)C(=O)C4)CC3)cc1)C(=O)C2 [Compound A, (S)-1-(4-Chloro-phenyl)-7-isopropoxy-6-methoxy-2-(4-{methyl-[4-(4-methyl-3-oxo-piperazin-1-yl)-trans-cyclohexylmethyl]-amino}-phenyl)-1,4-dihydro-2H-isoquinolin-3-one] | 6.9 ± 2.0% | 5/5 | 6% | 24 ± 12 ^a mm^3 |  |  | 
64.6 nM | COc1ncc(-c2nc3c(n2C(C)C)[C@H](c2ccc(Cl)cc2)N(c2cc(Cl)cn(C)c2=O)C3=O)c(OC)n1 [Compound B, (S)-5-(5-Chloro-1-methyl-2-oxo-1,2-dihydro-pyridin-3-yl)-6-(4-chloro-phenyl)-2-(2,4-dimethoxy-pyrimidin-5-yl)-1-isopropyl-5,6-dihydro-1H-pyrrolo[3,4-d]imidazol-4-one] |  |  |  |  | 46.6 nM | 27.7 nM | 86 nM
 | CN(C)C(=O)c1cc2cnc(Nc3ccc(N4CCNCC4)cn3)nc2n1C1CCCC1 [Compound C, 7-Cyclopentyl-2-(5-piperazin-1-yl-pyridin-2-ylamino)-7H-pyrrolo[2,3-d]pyrimidine-6-carboxylic acid dimethylamide] | 4.7 ± 2.3% | 5/5 | 18% | 66 ± 18 ^a mm^3 | 59.3 nM | 130 nM | 475 nM
